{
  "source": "patent US7517911B2",
  "about": "“3,4,5-trimethoxy phenyl-based ester compound and preparation method thereof and whitening cosmetic composition containing the same” (Amorepacific Corporation, priority 2001, dated 2009)",
  "key": {"[1]": {"system": "human skin", "test": "Whitening effect on the human skin (UVB-induced pigmentation, Chromameter)", "type": "in vivo", "conditions": "1% diluted solution (1,3-butyleneglycol:ethanol=7:3), applied for 10 weeks after UVB, 12 male volunteers", "description": "The brachia of twelve (12) healthy volunteers (males) were attached with opaque tape having 1.5 cm diameter holes, and then irradiated with UVB (ultraviolet rays B) in 1.5˜2 times the intensity of the minimum amount to form erythema for each volunteer, to induce pigmentation. After irradiating the UVB, 1% diluted solutions of the ester compounds of Examples 1˜6 (solvent was 1,3-butyleneglycol:ethanol=7:3) were applied on the above treated brachia for ten (10) weeks (the above 1% diluted solution was not applied on one brachium), and the colors of the skins thereof were measured by Chromameter CR2002 (manufactured by Minolta; Japan) per every one week. The difference of “L”, that is, “Δ L”, the amount of the increase of brightness of skin compared with those not applied with diluted solution, was measured. For reference, measurements for the cases that 3% kojic acid and vehicle (solvent) were applied were performed."}, "[2]": {"system": "Mel-Ab cells", "test": "Melanin-inhibiting effect in the melanocytes (Dooley method)", "type": "cell-based, C57BL/6", "conditions": "10 ppm in culture medium, absorbance at 400 nm, compared with cells cultured without compound"}, "[3]": {"system": "rabbit skin", "test": "Test for skin irritation on animals (Draize P.I.I.)", "type": "in vivo, rabbits", "conditions": "1% diluted solution, 0.5 ml", "method": "The hairs on the backs of six (6) healthy male rabbits were removed. After making areas of 2.5 cm×2.5 cm on the left and right sides of the back of each rabbit, nothing was applied on the left area of the back as control area, and 1% diluted solutions of the ester compounds of Examples 1˜6 (solvent was 1,3-butyleneglycol:ethanol=7:3) were applied on the right area of the back of the rabbits with an amount of 0.5 ml, one compound for each rabbit respectively. Irritations such as erythema, rash or edema were measured 24 hours and 72 hours after the application. In addition, the degree of irritation was determined according to the conventional, “P.I.I.” (Primary Irritation Index) of Draize, and the results are shown in Table 6."}, "[4]": {"system": "guinea pig skin", "test": "Test for radiation toxicity (UVA)", "type": "in vivo", "method": "The hairs on the backs of ten (10) guinea pigs were removed. After fixing the pigs, the back was divided into six (6) areas each having 2.0 cm×2.0 cm area, three (3) areas on the left side and three (3) on the right side. Right side areas were control areas prevented from being radiated, and left side areas were radiation areas. 1% (w/v) diluted solutions of ester compounds of Examples 1˜6 were applied thereto with an equal amount of 50 μl respectively, while using vehicle (1,3-butyleneglycol:ethanol=7:3) as a negative control, and using 0.1% 8-MOP(methoxypsoralene) as a positive control. After 30 minutes later, left sides of the back of the pig was shielded from light by aluminum foil, and UVA(320˜380 nm) was radiated from 10 cm distant with an final energy of 15J/cm^2 by using ultraviolet radiation device (waldmann). The skin of the guinea pig was observed after 24, 48 and 72 hours later. The irritation was graded as shown in table 5 with 0˜4 grades according to the intensity of the erythema and edema, and the sum was calculated. In the evaluation, the maximum value of the measurement that performed after 24, 48 and 72 hours later was chosen, and then the Irritation Index of an animal skin was calculated according to mathematical formula 1, and finally, the Radiation Toxicity Index was calculated according to mathematical Formula 2. Irritation Index of an animal skin=(Σ maximum value of erythema index+Σ maximum value of edema index)/number of animals [Mathematical Formula 1] Radiation Toxicity Index=(Irritation Index of an animal skin in an area of UV radiation)−(Irritation Index of an animal skin in an area UV non-radiation) [Mathematical Formula 2]"}, "[5]": {"system": "human skin", "test": "Test for application to human skin (patch test, CTFA Guideline)", "type": "in vivo", "conditions": "for The number of volunteers having reaction, mark +: + = Intense erythema; for The number of volunteers having reaction, mark + / The number of volunteers having reaction, mark ++ / The number of volunteers having reaction, mark +++ / The number of volunteers having reaction, mark ± / The number of volunteers having reaction, mark −: 1% in patch base, n = 30; for The number of volunteers having reaction, mark ++: ++ = Intense erythema with edema; for The number of volunteers having reaction, mark +++: +++ = Intense erythema with edema &vesicle; for The number of volunteers having reaction, mark ±: ± = Mild erythema; for The number of volunteers having reaction, mark −: − = No visible reactions", "method": "Each of the ester compounds of Examples 1˜6 were dissolved in a patch base shown in Table 8 to be 1% concentration respectively, to prepare test samples. 20 μl of each test sample was dropped in a Finn Chamber to make a patch, and the patch was attached to antebrachial skin (test region) and fixed with micro tape. The patch was attached for 24 hours, and after removing the patch, the test region was checked with marking pen, and then the region was observed after 1 and 24 hours."}},
  "data": [
    {"smiles": "COc1cc(CCC(=O)Oc2cc(C(C)C)ccc2C)cc(OC)c1OC", "note": "[Example 6, 2-methyl-5-(methylethyl)phenyl-3-(3,4,5-trimethoxyphenyl)propanoate]", "values": [
      {"measurement": "Increase of brightness of skin (Δ L)", "setting": "[1]", "value": "1.49 ± 0.11"},
      {"measurement": "Melanin generation ratio (%)", "setting": "[2]", "value": 48.1, "unit": "%"},
      {"measurement": "Determination (skin irritation)", "setting": "[3]", "value": "No irritation"},
      {"measurement": "P.I.I.", "setting": "[3]; measured 24 and 72 hours after application", "value": 0.315},
      {"measurement": "Radiation Toxicity Index", "setting": "[4]; 1% (w/v) solution 50 μl, UVA 15J/cm^2, observed 24, 48 and 72 hours", "value": 0},
      {"measurement": "Determination (radiation toxicity)", "setting": "[4]; 1% (w/v) solution, UVA 15J/cm^2", "value": "Radiation Non-Toxic"},
      {"measurement": "The number of volunteers having reaction, mark +", "setting": "[5]; 24 hours later", "value": 0},
      {"measurement": "The number of volunteers having reaction, mark ++", "setting": "[5]; 24 hours later", "value": 0},
      {"measurement": "The number of volunteers having reaction, mark +++", "setting": "[5]; 24 hours later", "value": 0},
      {"measurement": "The number of volunteers having reaction, mark ±", "setting": "[5]; 24 hours later", "value": 0},
      {"measurement": "The number of volunteers having reaction, mark −", "setting": "[5]; 24 hours later", "value": 30},
      {"measurement": "The number of volunteers having reaction, mark +", "setting": "[5]; 48 hours later", "value": 0},
      {"measurement": "The number of volunteers having reaction, mark ++", "setting": "[5]; 48 hours later", "value": 0},
      {"measurement": "The number of volunteers having reaction, mark +++", "setting": "[5]; 48 hours later", "value": 0},
      {"measurement": "The number of volunteers having reaction, mark ±", "setting": "[5]; 48 hours later", "value": 0},
      {"measurement": "The number of volunteers having reaction, mark −", "setting": "[5]; 48 hours later", "value": 30},
      {"measurement": "Average reaction (n = 30)", "setting": "[5]; {(grade × number of volunteers) × 100}/{maximum grade × total volunteers × number of test}, non-irritation standard value 1.0", "value": 0.00}
    ]}
  ]
}
